According to patent US20230338307A1, “PROPHYLACTIC AGENT, AMELIORATING AGENT, AND THERAPEUTIC AGENT FOR DRY EYE” (TSUBOTA LABORATORY, INC., priority 2020, published 2023):

Legend:
dry eye model [1] = experiment: Tear film breakup time (BUT) test, dry eye model by erlotinib instillation (Example 1); type: in vivo; details: 0.003% (w/v) apocynin in PBS, 3 μL twice daily, two weeks after start of instillation; erlotinib-instilled C57BL6 mice; FIG. 1
Text: (§1) After acclimating male C57BL6 mice (7 weeks old) to the experimental environment, those with almost uniform body weight values and no eye abnormalities were divided into the following 3 groups (n=5). • 7 weeks old/normal (non-dry eye group) • 7 weeks old/dry eye model+control (solvent eye drop) group • 7 weeks old/dry eye model+apocynin eye drop group The dry eye model was created by daily instillation of an EGF receptor inhibitor (erlotinib) based on the method of Yang et al. In this model, administration of erlotinib causes dry eye symptoms such as shortened BUT, decreased tear volume, and corneal damage after 1 week of administration (Non-patent Document 3). After 20 μM of erlotinib was instilled for 2 weeks, the control group received PBS alone, and the test group received 3 μL of a suspension of 0.003% (w/v) apocynin in PBS twice daily. Two weeks after the start of instillation, 1 μL of 0.1% sodium fluorescein solution was instilled into each of both eyes under isoflurane anesthesia, and a BUT test was performed using a slit lamp (Kowa Co., Ltd., SL-17) (FIG. 1). […] Under anesthesia, the tip of a Schirmer test paper cut to 1 mm width was inserted into the conjunctival sac of the lower eyelid of the mouse, the test paper was removed after 5 minutes, the length of the wetted part was read in units of 0.5 mm, and the value was used as the tear volume (FIG. 2).

dry eye model [2] = experiment: Fluorescein staining score (corneal epithelial damage), dry eye model by erlotinib instillation (Example 1); type: in vivo; details: 0.003% (w/v) apocynin eye drop twice daily, two weeks; erlotinib-instilled mice; FIG. 3
Text: as §1, with “daily.” for “daily. Two weeks after the start of instillation, 1 μL of 0.1% sodium fluorescein solution was instilled into each of both eyes under isoflurane anesthesia, and a BUT test was performed using a slit lamp (Kowa Co., Ltd., SL-17) (FIG. 1).”, “2). In the dry eye model prepared in Example 1, after BUT measurement, fluorescein-stained images were photographed under a blue filter using a slit lamp (Kowa Co., Ltd., SL-17), and corneal epithelial damage was analyzed (FIG. 3). […]” for “2).”

dry eye model [3] = experiment: Fluorescein staining score (corneal damage), dry eye model by systemic erlotinib (Example 3); type: in vivo, mice; details: 0.003% (w/v) apocynin eye drop twice a day, one week after start, FIG. 6
Description: After acclimating male C57BL6 mice (7 weeks old) to the experimental environment, those with almost uniform body weight values and no eye abnormalities were divided into the following 3 groups (n=4). • 7 weeks old/normal (non-dry eye group) • 7 weeks old/dry eye model+control (solvent eye drop) group • 7 weeks old/dry eye model+apocynin eye drop group The dry eye model was prepared by dissolving erlotinib at a concentration of 5 mg/ml in 0.5% methylcellulose solution and administering it by intraperitoneal injection at a concentration of 50 mg/kg/day daily from the start of the study. The solvent 0.5% methylcellulose solution was similarly administered to the normal non-administration group. After one week of administration of erlotinib, the control group received PBS alone, and the test group received a solution of 0.003% (w/v) apocynin suspended in PBS twice a day at both eyes with 3 μL each. One week after the start of instillation, 1 μL of 0.1% sodium fluorescein solution was instilled into each of both eyes under isoflurane anesthesia, and the BUT test was performed under a blue filter using a slit lamp (Kowa Co., Ltd., SL-17) (FIG. 5). In Example 3, one week after the start of apocynin instillation, photographs were taken under isoflurane anesthesia, and the degree of corneal damage was scored (FIG. 6).

dry eye model [4] = experiment: Schirmer test (tear volume), benzalkonium chloride dry eye model, Comparative Study 1 (Example 4); type: in vivo, mice; details: 0.1% (w/v) apocynin in 0.5% methylcellulose twice a day, 3 days after start; versus 0.5% (w/v) hyaluronic acid group; FIG. 8
Description: (§2) After acclimating male C57BL6 mice (7 weeks old) to the experimental environment, those with almost uniform weight values and no eye abnormalities were divided into the following groups (n=4). • 7 weeks old/normal (non-dry eye group) • 7 weeks old/dry eye model+control (solvent eye drop) group • 7 weeks old/dry eye model+0.1% (w/v) apocynin eye drop group • 7 weeks old/dry eye model+0.5% (w/v) hyaluronic acid eye drop group A dry eye model was prepared by instilling the benzalkonium chloride solution at 3 μL each eye, twice a day for 8 days. After that, the control group received the 0.5% methylcellulose solution alone, and the test group received 0.1% (w/v) apocynin or 0.5% (w/v) hyaluronic acid suspended in the 0.5% methylcellulose solution twice a day for 15 days at 3 μL for each of both eyes. Schirmer's test was performed 1, 3, 6, and 8 days after the start of instillation of the comparative test drug, and tear volume was evaluated.

dry eye model [5] = experiment: Fluorescein staining score, benzalkonium chloride dry eye model, Comparative Study 1 (Example 4); type: in vivo, mice
Description: as §2, with “eyes. In Example 4,” for “eyes. Schirmer's test was performed”, “6, 8,” for “6,”, “and 15” for “and 8”, “drug, 1 μL of the 0.1% fluorescein sodium solution was instilled into each of both eyes. Fluorescein-stained images were observed under a blue filter using a slit lamp (Kowa Co., Ltd., SL-17),” for “drug,”, “and the degree of corneal epithelial damage” for “and tear volume”, “was scored.” for “was evaluated.”

In the case of `COc1cc(C(C)=O)ccc1O` [apocynin, 4-hydroxy-3-methoxyacetophenone], the “tear film breakup time (BUT)” value (dry eye model [1]) is reported as “improved the shortening of BUT”, the “corneal epithelial damage (fluorescein staining score)” value (dry eye model [2]) is reported as “significant improvement was observed” and the “corneal epithelial damage (fluorescein staining score)” value (dry eye model [3]) is reported as “significantly improved”. For the same molecule, the “tear volume (Schirmer test)” value (dry eye model [4]) was “marked improvement in the tear volume compared to the hyaluronic acid eye drop group”, the “fluorescein staining score (corneal damage)” value (dry eye model [5]; 3 days after start of instillation, compared to control, 0.1% (w/v) apocynin or 0.5% (w/v) hyaluronic acid twice a day, FIG. 9A) was “significantly reduced” and the “fluorescein staining score (corneal damage)” value (dry eye model [5]; 15 days after start of instillation, 0.1% (w/v) apocynin twice a day, FIG. 9B) was “significant decrease”.
